Data as given in the NIST ThermoML archive (doi:10.1021/je030136n).

Experiment: xn = mol fraction of the nth substance listed
Conditions: Liquid, Pulse-echo method

CCCCCCC [heptane] + CCCO
Conditions | speed of sound [m/s]
293.1 K, 45590 kPa, x2 = 0.6027 | 1414.5
293.1 K, 91190 kPa, x2 = 0.1008 | 1599
293.1 K, 91190 kPa, x2 = 0.3008 | 1594.3
293.1 K, 111450 kPa, x2 = 0 | 1674.3
293.11 K, 45590 kPa, x2 = 0.1008 | 1412
293.11 K, 121580 kPa, x2 = 0.7986 | 1691.8
293.12 K, 100 kPa, x2 = 0.4992 | 1158.2
293.12 K, 30400 kPa, x2 = 0.7986 | 1355.6
293.12 K, 45590 kPa, x2 = 0.7986 | 1424
293.12 K, 75990 kPa, x2 = 0.7986 | 1543.1
293.13 K, 100 kPa, x2 = 0.6027 | 1164.9
293.13 K, 30400 kPa, x2 = 0.6027 | 1343.3
293.13 K, 45590 kPa, x2 = 0.4992 | 1412.6
293.13 K, 60790 kPa, x2 = 0.7986 | 1486.1
293.13 K, 75990 kPa, x2 = 0.1008 | 1541.8
293.13 K, 121580 kPa, x2 = 0.1008 | 1701.6
293.14 K, 100 kPa, x2 = 0.7016 | 1173.8
293.14 K, 100 kPa, x2 = 0.7986 | 1185.8
293.14 K, 60790 kPa, x2 = 0.6027 | 1478.7
293.14 K, 91190 kPa, x2 = 0.6027 | 1592.5
293.14 K, 101320 kPa, x2 = 0.1008 | 1634.7
293.14 K, 111450 kPa, x2 = 0.3008 | 1663.3
293.14 K, 111450 kPa, x2 = 0.7986 | 1661.2
293.15 K, 100 kPa, x2 = 0 | 1151.7
293.15 K, 75990 kPa, x2 = 0.6027 | 1537.8
293.15 K, 111450 kPa, x2 = 0.1008 | 1668.9
293.16 K, 30400 kPa, x2 = 0.7016 | 1348.5
293.16 K, 60790 kPa, x2 = 0.4992 | 1478
293.16 K, 75990 kPa, x2 = 0.4992 | 1537.8
293.16 K, 91190 kPa, x2 = 0.7986 | 1595.9
293.16 K, 101320 kPa, x2 = 0.3008 | 1629.5
293.16 K, 111450 kPa, x2 = 0.6027 | 1659.8
293.16 K, 121580 kPa, x2 = 0 | 1707.1
293.16 K, 121580 kPa, x2 = 0.7016 | 1691
293.17 K, 30400 kPa, x2 = 0.4992 | 1340.5
293.17 K, 45590 kPa, x2 = 0.7016 | 1418.3
293.17 K, 101320 kPa, x2 = 0.7986 | 1629.2
293.17 K, 121580 kPa, x2 = 0.3008 | 1695.5
293.18 K, 30400 kPa, x2 = 0 | 1341.5
293.18 K, 60790 kPa, x2 = 0.7016 | 1481.6
293.18 K, 101320 kPa, x2 = 0.6027 | 1626.9
293.18 K, 111450 kPa, x2 = 0.7016 | 1659.9
293.18 K, 121580 kPa, x2 = 0.6027 | 1691.2
293.19 K, 45590 kPa, x2 = 0 | 1416.6
293.19 K, 60790 kPa, x2 = 0.1008 | 1479.6
293.19 K, 60790 kPa, x2 = 0.3008 | 1476.8
293.19 K, 91190 kPa, x2 = 0.4992 | 1592.6
293.19 K, 101320 kPa, x2 = 0.7016 | 1627.5
293.2 K, 15200 kPa, x2 = 0 | 1256.3
293.2 K, 60790 kPa, x2 = 0 | 1484.5
293.2 K, 75990 kPa, x2 = 0 | 1546.5
293.2 K, 75990 kPa, x2 = 0.3008 | 1537.7
293.2 K, 75990 kPa, x2 = 0.7016 | 1539.8
293.2 K, 91190 kPa, x2 = 0 | 1603.7
293.2 K, 91190 kPa, x2 = 0.7016 | 1593.7
293.2 K, 101320 kPa, x2 = 0 | 1639.7
293.21 K, 100 kPa, x2 = 0.3008 | 1149.9
293.21 K, 30400 kPa, x2 = 0.3008 | 1336.5
293.21 K, 101320 kPa, x2 = 0.4992 | 1627.3
293.21 K, 111450 kPa, x2 = 0.4992 | 1660.5
293.22 K, 100 kPa, x2 = 0.1008 | 1147.3
293.22 K, 15200 kPa, x2 = 0.1008 | 1252
293.22 K, 30400 kPa, x2 = 0.1008 | 1337
293.22 K, 45590 kPa, x2 = 0.3008 | 1410.2
293.23 K, 121580 kPa, x2 = 0.4992 | 1692.2
298.06 K, 121580 kPa, x2 = 0.6027 | 1679
298.1 K, 101320 kPa, x2 = 0.3008 | 1616
298.11 K, 75990 kPa, x2 = 0 | 1531.6
298.13 K, 100 kPa, x2 = 0.4992 | 1137
298.13 K, 101320 kPa, x2 = 0.4992 | 1614.4
298.13 K, 111450 kPa, x2 = 0 | 1660.5
298.13 K, 111450 kPa, x2 = 0.6027 | 1647.1
298.13 K, 111450 kPa, x2 = 0.7986 | 1649.2
298.14 K, 91190 kPa, x2 = 0.4992 | 1579.3
298.14 K, 111450 kPa, x2 = 0.3008 | 1650.1
298.14 K, 121580 kPa, x2 = 0 | 1692.4
298.14 K, 121580 kPa, x2 = 0.1008 | 1688.8
298.14 K, 121580 kPa, x2 = 0.4992 | 1679.9
298.15 K, 100 kPa, x2 = 0.1008 | 1125.7
298.15 K, 30400 kPa, x2 = 0.4992 | 1323.2
298.15 K, 30400 kPa, x2 = 0.7986 | 1339.6
298.15 K, 60790 kPa, x2 = 0.4992 | 1462.7
298.15 K, 75990 kPa, x2 = 0.4992 | 1523.3
298.15 K, 91190 kPa, x2 = 0 | 1589.4
298.15 K, 101320 kPa, x2 = 0.6027 | 1613.9
298.15 K, 111450 kPa, x2 = 0.4992 | 1647.9
298.15 K, 121580 kPa, x2 = 0.3008 | 1682.7
298.16 K, 100 kPa, x2 = 0 | 1129.9
298.16 K, 45590 kPa, x2 = 0.1008 | 1395.7
298.16 K, 45590 kPa, x2 = 0.4992 | 1396.7
298.16 K, 45590 kPa, x2 = 0.7986 | 1408.9
298.16 K, 101320 kPa, x2 = 0 | 1625.7
298.16 K, 101320 kPa, x2 = 0.1008 | 1620.6
298.16 K, 111450 kPa, x2 = 0 | 1660.4
298.17 K, 100 kPa, x2 = 0.7986 | 1166.7
298.17 K, 15200 kPa, x2 = 0.1008 | 1232.9
298.17 K, 30400 kPa, x2 = 0.1008 | 1319.5
